Data taken from patent US12440476B2, “Agents that target telomerase reverse transcriptase (TERT) for treating cancer and sensitizing cancer cells to genotoxic therapy” (Northwestern University, priority 2022, dated 2025).

What was measured:
[1] = test system: CT26 tumors; experiment: Subcutaneous CT26 tumor growth, IR with or without NU-1, immunodeficient host; assay type: in vivo; settings: NSG mice
Procedure: (§1) For tumor inoculation, 7-9 week BALB/c mice or NSG mice were subcutaneously injected in the flank with 0.5×10^6 CT26 cells in 100 μL PBS. On Day 9 (tumor average volume ˜30 mm^3), the tumor bearing BALB/c mice were randomly divided into 4 groups of 8, while the NSG mice were randomly divided into 2 groups of 5-6. For NU-1 treatment, 10 mg/kg of NU-1 in 100 μL PBS was injected intraperitoneally once on each of the 2 days before, the day of and 2 days after irradiation. Mouse weight was measured before treatment. Tumor irradiation was conducted on Day 11 using a RadSource RS-2000 X-Ray generator operating at 160 kV and 25 mA at 10 Gy, calibrated by NIST traceable dosimetry. From Day 7 after tumor inoculation, tumors were measured by calipers every 2-3 days and volume calculated using the formula: Tumor volume (mm^3)=length (mm)×width (mm)×width (mm)[…]. On Day 18 after tumor inoculation, tumors from 3 mice under each treatment condition were collected for histology analysis. The rest of the mice were continuously maintained and recorded until at least Day 28 or reaching the humane endpoint for tumor volume. No animals that formed tumors after injection with CT26 cells were excluded from any studies reported here.
CT26 tumors were collected 5 days after treatment (Day 18 after tumor inoculation) and fixed in 10% neutral formalin for 24 h. […]

[2] = test system: MCF7 cells; experiment: Senescence-associated beta-galactosidase (SA-β-Gal) assay; assay type: cell-based, human; settings: 50 nM, 7 days after IR
Procedure: MCF7, Saos-2, or CT26 cells were seeded at 3×10^4 per well in 6-well plates and allowed to attach to plate overnight. […] Then MCF7 and Saos-2 cells were irradiated with 0 or 6 Gy and CT26 cells with 0 or 10 Gy. After IR, MCF7 and Saos-2 cells were continuously cultured for 7 days and CT26 for 5 days, then fixed in 2% PFA and stained with staining buffer (1 mg/ml X-Gal (Golden Bio), 40 mM citric acid/sodium phosphate, 150 mM NaCl, 2 mM MgCl2, 3.3 mM K3[Fe(CN)6], 3.3 mM K4[Fe(CN)6], pH=6) for 16 h at 37° C., then washed with warm PBS three times and imaged in PBS within a week. Images were captured on a Zeiss Axiovert 200M microscope with a 20× Plan-NeoFluar objective and Axiocam digital camera. SA-β-Gal-positive and -negative cells were counted in more than 5 fields, yielding an average percentage indicated on each SA-β-Gal image as mean±SD. Three replicates were performed.

[3] = test system: CT26 subcutaneous tumors; experiment: Subcutaneous CT26 tumor growth, NU-1 with or without 10 Gy; assay type: in vivo, BALB/c mice
Procedure: as §1
CT26 tumors were collected 5 days after treatment (Day 18 after tumor inoculation) and fixed in 10% neutral formalin for 24 h. Formaldehyde-fixed paraffin-embedded (FFPE) tumors were sectioned and stained with hematoxylin and eosin (H&E) by the Human Tissue Resource Center at The University of Chicago. To perform immunofluorescence analysis, tumor sections were deparaffinized in xylene for 10 min, then rehydrated with 95%, 70%, 50%, and 0% ethanol for 5 min each. After that, the tumor section was immersed in 10 mM sodium citrate buffer (pH 6.0) for 30 min at 90° C. for antigen retrieval. Then the tumor sections were blocked in 5% BSA-TBS, stained with anti-Ki67 (1:1000), anti-γH2AX (1:500), anti-CD45 (1:500), anti-CD11c (1:250), anti-CD8 (1:250), anti-granzyme B (1:250) and anti-PD-L1 primary antibodies diluted in 5% BSA-TBS at 4° C. overnight. Followed by washing with TBST, tumor sections were stained with fluorophore-conjugated secondary antibodies (1:2000, Vector Labs) and DAPI (1 μg/mL) diluted in 5% BSA-TBS for 90 min at room temperature. The H&E stained tissue sections were scanned using an Olympus VS200 SlideView Whole Slide Scanner. The fluorescent tumor sections were imaged using a 3i Marianas Spinning Disk Confocal with a 20× objective and pseudo-colored using Fiji. Detailed primary antibody information is provided in Key resources table.

[4] = test system: CD8+ T cells; experiment: In vitro T cell priming assay (CFSE dilution); assay type: cell-based, mouse; settings: DCs stimulated by inhibitor treated and irradiated (10 Gy) CT26 cells; 5 days; NU-1 1 μM, MST 2 μM
Procedure: To evaluate effects of TERT on tumor immunogenicity, CT26 cells were seeded at […] per well in 12-well plates, allowed to attach overnight, and then treated with DMSO, NU-1 (1 μM), or MST-312 (2 μM) for 1 h, followed by 0 or 10 Gy. 5 days after IR, the media were removed, cells washed with PBS, and fresh immune cell culture medium added. CT26 cells were then cultured overnight, followed by coculturing with immature BMDCs for 12-16 h at a 1:2 ratio. After coculture, the suspension BMDCs were collected into round bottom FACS tubes, washed with PBS, and stained with Zombie yellow (1:1000, BioLegend) for 10 min at room temperature. […] After PBS washing, cells were resuspended in 300 μL Cell Staining Buffer and analyzed using a BD Fortessa 4-15 HTS Flow cytometer within 2 hours. Data were then analyzed by FlowJo software. […]
Splenocytes isolated from CT26 immunized mice were stained with 0.5 μM carboxyfluorescein succinimidyl ester (CFSE) (Thermo Fisher Scientific, Cat #C34554) for 10 min at room temperature (Quah et al., 2007). […] Cells were analyzed using a BD Fortessa 4-15 HTS flow cytometer and FlowJo software. […]

[5] = IR + NU-1, tumors removed on Day 18

C=C1C(=O)[C@](C)(C(=O)OC)[C@H](CCc2cn(Cc3ccc(F)cc3F)nn2)O[C@@H]1C [NU-1]
Tumor elimination ([1]; IR + NU-1): no longer sufficient to eliminate tumors
Tumor growth delay ([1]; IR + NU-1 vs IR alone): enhanced growth delay
Enhancement of senescence after IR at low concentration [2]: sufficient to enhance senescence after IR
Effect on tumor growth, NU-1 alone ([3]; 10 mg/kg IP daily Days 9 to 13, no IR): no appreciable effect
Tumors eliminated within two weeks after treatment ([3]; IR (10 Gy, Day 11) + NU-1 10 mg/kg IP Days 9 to 13): 7 of 8
Tumor immune infiltration ([3]; IR + NU-1, Day 18 tumor sections): markedly higher tumor immune infiltration
Tumor recurrence after clearance ([3]; IR + NU-1, followed 54 days): did not recur
Ki-67 expression in tumors vs IR alone [3, 5]: lower expression of proliferation marker Ki-67
Persistent γH2AX in tumors vs IR alone [3, 5]: upregulation of persistent γH2AX
PD-L1 in tumors ([3]; IR + NU-1 vs IR alone): less increase in PD-L1
Proliferating CD8+ T cells [4]: 33.5%
